# Source: patent EP0700912A1, “QUINOLONE DERIVATIVE OR SALT THEREOF, AND ANTIBACTERIAL CONTAINING THE SAME” (priority 1993, dated 1994)
# Legend:
# [1] = Photo-toxicity: ear abnormality after intravenous dosing and ultraviolet exposure; type: in vivo; conditions: 40 mg/kg/10 mℓ intravenously, female ICR mouse, headed 0 hour; for ranking points: ultraviolet rays 4 hours, 0 = no abnormality, 1 = slight erythema, 2 = medium erythema, 3 = heavy erythema or edema; for Number of toxicity-developed cases: ultraviolet rays 320-400 nm, 1.8 mW/cm²/sec, 4 hours
# Experimental: After 40 mg/kg/10 mℓ of the test compound were administered intravenously to a female ICR mouse (5-6 week old), it was exposed to ultraviolet rays (320-400 nm, 1.8 mW/cm²/sec) for 4 hours. […] The abnormality on the ears was ranked as 0 point in the case of no abnormality, 1 point in the case of slight erythema, 2 points in the case of medium erythema, and 3 points in the case of heavy erythema or edema.
# P.aeruginosa (IFO 3445) = test: Antibacterial activities: minimum inhibitory concentration (standard method of Japan Society of Chemotherapy); type: cell-based; conditions: Pseudomonas aeruginosa, IFO3445
# Experimental: (§1) The minimum inhibitory concentration [MIC: µg/mℓ] was measured in accordance with the standard method of Japan Society of Chemotherapy [CHEMOTHERAPY, 29, No.1, 76-79(1981)]. The results are shown in Table 13 in which compound numbers are the same as those synthesized in the above Examples.
# [2] = tested on: S.aureus 209P (IFO 12732); test: as above; type: cell-based; conditions: Staphylococcus aureus
# Experimental: as §1
# [3] = tested on: E.coli NIH JC-2 (IFO*12734); test: as above; type: cell-based; conditions: Escherichia coli
# Experimental: as §1
# [4] = Absorption and excretion: recovery in bile after oral administration; type: in vivo; conditions: rats with polyethylene tube in choledoch, bile collected over 24 hours
# Experimental: The absorption and excretion of the orallyadministered invention compound were tested by measuring the recovery in urine and that in bile according to the following method.
# After the test compound was prepared in a similar manner to the measurement of the recovery in urine, it was orally administered to the rats who had had their choledoch inserted with a polyethylene tube. The bile was collected over 24 hours. The concentration of the test compound in the bile was examined in the similar manner to the above and the excretion rate in the bile for 24 hours was determined.
SMILES,ranking points ([1]; first column),ranking points ([1]; second column),ranking points ([1]; third column),MIC (P.aeruginosa (IFO 3445)),MIC [2],MIC [3],"Excretion rate (24 hrs, %) in bile [4]",Number of toxicity-developed cases ([1]; first column),Number of toxicity-developed cases ([1]; second column),Number of toxicity-developed cases ([1]; third column)
"CCn1cc(C(=O)O)c(=O)c2cc(F)c(N3CCNCC3)cc21 [Norfloxacin, reference compound]",1.0,1.0,0,–,–,–,–,–,–,–
C[C@H]1CN(c2cc3c(cc2F)c(=O)c(C(=O)O)cn3-c2ccon2)C[C@H]1N [Compound No. 5],0,0,0,0.2 µg/mL,0.1 µg/mL,0.025 µg/mL,1.2%,0/6,0/6,0/6
"CC1COc2c(N3CCN(C)CC3)c(F)cc3c(=O)c(C(=O)O)cn1c23 (stereo not shown) [Ofloxacin, reference compound]",–,–,–,1.56 µg/mL,0.39 µg/mL,0.1 µg/mL,–,–,–,–
"CCn1cc(C(=O)O)c(=O)c2cc(F)c(N3CCNCC3)nc21 [Enoxacin, reference compound]",1.0,0.4,0.3,–,–,–,–,–,–,–
"Cl.N[C@H]1CCN(c2cc3c(cc2F)c(=O)c(C(=O)O)cn3-c2ccon2)C1 [Compound No. 4, 7-{3(S)-aminopyrrolidin-1-yl}-6-fluoro-1-(isoxazol-3-yl)-1,4-dihydro-4-oxoquinoline-3-carboxylic acid hydrochloride]",0,0,0,0.1 µg/mL,0.1 µg/mL,0.025 µg/mL,–,0/6,0/6,0/6
N[C@H]1CCN(c2cc3c(c(Cl)c2F)c(=O)c(C(=O)O)cn3-c2ccon2)C1 [compound 49],–,–,–,0.2 µg/mL,0.2 µg/mL,0.05 µg/mL,–,–,–,–
Nc1c(F)c(N2CC[C@H](N)C2)cc2c1c(=O)c(C(=O)O)cn2-c1ccon1 [compound 57],–,–,–,0.1 µg/mL,0.05 µg/mL,0.013 µg/mL,–,–,–,–
C[C@H]1CN(c2cc3c(c(N)c2F)c(=O)c(C(=O)O)cn3-c2ccon2)C[C@H]1N [compound 58],–,–,–,0.2 µg/mL,0.05 µg/mL,0.013 µg/mL,–,–,–,–
